Source: ChEMBL document CHEMBL5370672, “Discovery of Orally Bioavailable Phthalazinone Analogues as an ENPP1 Inhibitor for STING-Mediated Cancer Immunotherapy” (J Med Chem, 2023)

How the values were obtained:
[1] = Toxicity in BALB/c mouse implanted with mouse CT26 cells assessed as effect on body weight at 200 mg/kg, po preadministered with compound for 2 weeks followed by reinoculation of CT26 cells and measured on day 19; assay type: organism-based; conditions: in vivo, 456 h, time 19 day
[2] = MRT (0 to t) in BALB/c mouse at 5 mg/kg, iv measured after 24 hrs by LC-MS/MS analysis; assay type: ADME, organism-based; conditions: in vivo
[3] = tested on: THP-1; test: Cytotoxicity against human THP-1 cells assessed as reduction in cell viability upto 50 uM incubated for 24 hrs in the presence of cGAMP by celltiter 96 aqueous one solution cell proliferation assay; assay type: toxicity, cell-based; conditions: thp-1, 24 h
[4] = Half-life in BALB/c mouse at 20 mg/kg, po measured after 24 hrs by LC-MS/MS analysis; assay type: ADME, organism-based; conditions: in vivo
[5] = target: T1, Cytochrome P450 1A2 (Homo sapiens, UniProt P05177); test: Inhibition of CYP1A2 in human liver microsomes; assay type: ADME, Microsome
T1 sequence (P05177 whole entry): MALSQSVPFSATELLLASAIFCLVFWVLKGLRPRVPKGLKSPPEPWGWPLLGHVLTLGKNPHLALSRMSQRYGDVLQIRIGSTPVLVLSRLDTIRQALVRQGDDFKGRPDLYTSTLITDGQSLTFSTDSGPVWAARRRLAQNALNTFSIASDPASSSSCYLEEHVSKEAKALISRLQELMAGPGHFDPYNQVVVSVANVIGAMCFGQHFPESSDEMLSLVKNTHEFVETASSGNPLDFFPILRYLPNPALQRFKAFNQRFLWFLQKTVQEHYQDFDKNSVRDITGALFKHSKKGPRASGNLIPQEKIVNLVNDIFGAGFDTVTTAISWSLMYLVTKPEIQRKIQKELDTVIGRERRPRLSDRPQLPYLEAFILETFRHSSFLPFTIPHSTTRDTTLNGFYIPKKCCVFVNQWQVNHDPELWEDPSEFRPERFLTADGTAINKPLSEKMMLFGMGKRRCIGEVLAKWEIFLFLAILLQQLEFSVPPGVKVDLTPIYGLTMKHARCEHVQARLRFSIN

[6] = Cmax in BALB/c mouse at 5 mg/kg, iv measured after 24 hrs by LC-MS/MS analysis; assay type: ADME, organism-based; design: dose 5 mg/kg, time 24 hrs, route iv; conditions: in vivo
[7] = Oral bioavailability in BALB/c mouse at 20 mg/kg measured after 24 hrs by LC-MS/MS analysis; assay type: ADME, organism-based; conditions: in vivo
[8] = AUC (0 to infinity) in BALB/c mouse at 5 mg/kg, iv measured after 24 hrs by LC-MS/MS analysis; assay type: ADME, organism-based; design: dose 5 mg/kg, time 24 hrs, route iv; conditions: in vivo
[9] = Metabolic stability in human liver microsome assessed as parent compound remaining measured after 30 mins by LC/MS analysis; assay type: ADME; conditions: liver microsomes, read-out: Stability
[10] = target: Stimulator of interferon genes protein (Homo sapiens) (UniProt Q86WV6); test: (§1) Activation of STING-mediated immune response in human HCT-116 cells transfected with ISRE reporter assessed as increase in cGAMP-induced ISRE activation by measuring fold change at 25 to 100 uM preincubated with compound for 1 hrs followed by cGAMP addition and measured after 48 hrs by luciferase reporter gene assay; assay type: cell-based; conditions: filed as activator, dose 25-100 µM, time 49.0 hrs
Sequence of Stimulator of interferon genes protein (Homo sapiens) (Q86WV6 whole entry): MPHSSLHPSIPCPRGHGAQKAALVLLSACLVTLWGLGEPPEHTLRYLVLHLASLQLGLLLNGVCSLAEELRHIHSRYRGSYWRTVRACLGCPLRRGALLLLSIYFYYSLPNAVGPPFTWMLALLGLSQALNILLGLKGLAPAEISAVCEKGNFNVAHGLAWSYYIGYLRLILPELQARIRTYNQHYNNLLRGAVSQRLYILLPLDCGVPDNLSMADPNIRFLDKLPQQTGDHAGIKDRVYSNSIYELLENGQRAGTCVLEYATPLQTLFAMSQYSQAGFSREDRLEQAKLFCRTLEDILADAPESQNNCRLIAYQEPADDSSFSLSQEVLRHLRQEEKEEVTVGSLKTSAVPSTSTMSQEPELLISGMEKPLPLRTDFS

[11] = target: Stimulator of interferon genes protein (Homo sapiens) (UniProt Q86WV6); test: as §1, with “THP-1” for “HCT-116”, “50” for “100”, “24” for “48”; assay type: cell-based; conditions: filed as activator, dose 25-50 µM, time 25.0 hrs
[12] = tested on: CT26; test: Immunological memory derived antitumor activity against mouse CT26 cells implanted in BALB/c mouse assessed as tumor growth regression at 200 mg/kg, po preadministered with compound for 2 weeks followed by reinoculation of CT26 cells and measured on day 19 relative to control; assay type: functional; conditions: time 19 day
[13] = target: Cytochrome P450 2C9 (Homo sapiens, UniProt P11712); test: Inhibition of CYP2C9 in human liver microsomes; assay type: ADME, Microsome
Sequence of Cytochrome P450 2C9 (P11712 whole entry): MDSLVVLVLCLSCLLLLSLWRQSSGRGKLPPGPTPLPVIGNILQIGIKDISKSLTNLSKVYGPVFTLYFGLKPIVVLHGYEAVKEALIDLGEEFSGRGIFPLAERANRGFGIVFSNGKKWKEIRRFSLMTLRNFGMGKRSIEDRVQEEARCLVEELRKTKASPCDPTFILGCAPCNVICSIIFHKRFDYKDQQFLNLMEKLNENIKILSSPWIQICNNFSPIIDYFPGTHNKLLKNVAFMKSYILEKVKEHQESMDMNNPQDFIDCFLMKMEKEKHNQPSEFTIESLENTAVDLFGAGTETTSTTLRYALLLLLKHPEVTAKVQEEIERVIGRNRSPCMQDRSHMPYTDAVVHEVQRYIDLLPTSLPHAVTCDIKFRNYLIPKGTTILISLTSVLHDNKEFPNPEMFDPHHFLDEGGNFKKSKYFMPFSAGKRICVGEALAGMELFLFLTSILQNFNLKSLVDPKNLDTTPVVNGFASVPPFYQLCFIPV

[14] = target: Cytochrome P450 2C19 (Homo sapiens, UniProt P33261); test: Inhibition of CYP2C19 in human liver microsomes; assay type: ADME, Microsome
Sequence of Cytochrome P450 2C19 (P33261 whole entry): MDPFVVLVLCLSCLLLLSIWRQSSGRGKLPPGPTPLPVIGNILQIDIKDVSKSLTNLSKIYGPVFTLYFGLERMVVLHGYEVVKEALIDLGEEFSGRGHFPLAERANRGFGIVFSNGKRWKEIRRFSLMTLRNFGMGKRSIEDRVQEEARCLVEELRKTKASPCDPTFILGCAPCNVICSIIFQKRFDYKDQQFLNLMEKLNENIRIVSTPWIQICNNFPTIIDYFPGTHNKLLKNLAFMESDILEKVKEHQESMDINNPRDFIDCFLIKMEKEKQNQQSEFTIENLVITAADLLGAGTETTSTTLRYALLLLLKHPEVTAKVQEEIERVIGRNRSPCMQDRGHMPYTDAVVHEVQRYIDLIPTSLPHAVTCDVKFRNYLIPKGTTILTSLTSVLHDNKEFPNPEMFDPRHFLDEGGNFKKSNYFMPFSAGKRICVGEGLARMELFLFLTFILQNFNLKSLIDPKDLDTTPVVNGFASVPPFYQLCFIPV

[15] = tested on: CT26; test: Antitumor activity against mouse CT26 cells implanted in BALB/c mouse assessed as tumor growth inhibition at 200 mg/kg, po administered for 2 weeks and measured on day 15 relative to control; assay type: functional; conditions: CT26, 360 h, time 15 day, read-out: TGI
[16] = AUC (0 to t) in BALB/c mouse at 20 mg/kg, po measured after 24 hrs by LC-MS/MS analysis; assay type: ADME, organism-based; design: time 24 hrs, dose 20 mg/kg, route po; conditions: in vivo
[17] = Volume of distribution at steady state in BALB/c mouse at 5 mg/kg, iv measured after 24 hrs by LC-MS/MS analysis; assay type: ADME, organism-based; conditions: in vivo, read-out: Vdss
[18] = MRT (0 to infinity) in BALB/c mouse at 5 mg/kg, iv measured after 24 hrs by LC-MS/MS analysis; assay type: ADME, organism-based; conditions: in vivo
[19] = tested on: HCT-116; test: Cytotoxicity against human HCT-116 cells assessed as reduction in cell viability upto 200 uM incubated for 48 hrs in the presence of cGAMP by celltiter 96 aqueous one solution cell proliferation assay; assay type: functional, cell-based

With `Cn1nc(Cc2ccc(NS(N)(=O)=O)cc2)c2ccccc2c1=O` the Activity [1] was “Non-Toxic”, the MRT last at 24 h [2] was 2.83 h and the Activity [3] was “Non-Toxic”. The half-life [4] was 2.8 h, the IC50 [5] was > 10 µM and the Cmax [6] was 9540 ng/mL. The bioavailability [7] was 65.4%, the AUC(0-inf) [8] was 30900 ng·h/mL and the remaining at 0.5 h [9] was 87%. The fold change (FC) [10] was 3.63, the fold change (FC) [11] was < 30 and the Activity [12] was 100%. For the same compound, the IC50 [13] was > 10 µM, the IC50 [14] was > 10 µM and the inhibition in vivo at 200 mg/kg [15] was 55%. The AUC(0-t) at 24 h [16] was 79400 ng·h/mL, the Vd [17] was 0.51 L/kg and the MRT inf [18] was 3.21 h. The Activity [19] was “Not toxic”.
